This is an account of results in EP0343801A2, “N-(5,6,7,8-tetrahydropyrido(2,3-D)pyrimidin-6-yl-alkanoyl)-glutamic acid derivatives” (THE TRUSTEES OF PRINCETON UNIVERSITY, priority 1988, dated 1989).

One series has as its system CCRF-CEM. Nature of the series: IC50 in whole cell human leukemia cell lines, CCRF-CEM. The format is cell-based. The conditions noted are these: read-out: IC₅₀. As for the experimental part: The IC₅₀ in whole cell human leukemia cell lines, CCRF-CEM, of N-[5-(2-{2-amino-4-hydroxy-5,6,7,8-tetrahydropyrido[2,3-d]pyrimidin-6-yl}ethyl)thien-2-ylcarbonyl]-L-glutamic acid is 0.0015 ug/mL. The IC₅₀ of N-[5-(2-{2-amino-4-hydroxy-5,6,7,8-tetrahydropyrido[2,3-d]pyrimidin-6-yl}ethyl)fur-2-ylcarbonyl]-L-glutamic acid is 0.010 ug/mL. The IC₅₀ of N-[4-(2-{2-amino-4-hydroxy-5,6,7,8-tetrahydropyrido[2,3-d]pyrimidin-6-yl}-ethyl)thien-2-ylcarbonyl]-L-glutamic acid is 0.0756 ug/mL.
The IC₅₀ in whole cell human leukemia cell lines, CCRF-CEM, of other compounds of this invention are as follows: […]

In series [1] the test system is 6C3HED lymphosarcoma tumors. The series can be described thus: In vivo evaluation against 6C3HED lymphosarcoma tumors in mice. The conditions noted are these: IP, daily administration.
For another series, the system named is MX-1 Mammary Xenography. The series can be described thus: In vivo evaluation against MX-1 Mammary Xenography in mice. The conditions noted are these: IP, daily administration, days 1, 4, 7, 10.
The subject of series [2] is CA-755 Adenocarcinoma tumors. The series can be described thus: In vivo evaluation against CA-755 Adenocarcinoma tumors in mice. The settings on record: IP, daily administration, days 1, 4, 7, 10.
For another series, the system named is B-16 Melanoma tumors. The series can be described thus: In vivo evaluation against B-16 Melanoma tumors in mice. The conditions noted are these: IP, daily administration, days 1, 7.
Another series relates to CX-1 Colon Xenography. The series can be described thus: In vivo evaluation against CX-1 Colon Xenography in mice. The conditions noted are these: IP, daily administration, days 1, 4, 7, 10.
In series [3] the test system is C3H Mammary Adenocarcinoma tumors. Nature of the series: In vivo evaluation against C3H Mammary Adenocarcinoma tumors in mice. The conditions noted are these: IP, daily administration, days 1, 4, 7, 10.
In the next series the test system is LX-1 Lung Xenography. Nature of the series: In vivo evaluation against LX-1 Lung Xenography in mice. The conditions noted are these: IP, daily administration, days 1, 4, 7, 10.

Values after ≈ are worked out from the molar mass of the structure shown.

On to `Nc1nc(O)c2c(n1)NCC(CCCCC(=O)N[C@@H](CCC(=O)O)C(=O)O)C2` (stereo partly drawn) [-(CH₂)₂-, N-[5-(2-amino-4-hydroxy-5,6,7,8-tetrahydropyrido[2,3-d]pyrimidin-6-yl)pentanoyl]-L-glutamic acid], for which, in the series on CCRF-CEM, the IC50 is 0.023 µg/mL (≈ 0.0582 µM).

Consider `Nc1nc(O)c2c(n1)NCC(CCCCCC(=O)N[C@@H](CCC(=O)O)C(=O)O)C2` (stereo partly drawn) [-(CH₂)₃-, N-[6-(2-Amino-4-hydroxy-5,6,7,8-tetrahydropyrido[2,3-d]pyrimidin-6-yl)hexanoyl]-L-glutamic Acid], for which, in the series on CCRF-CEM, the IC50 turned out to be 0.0075 µg/mL (≈ 0.0183 µM).

As for `Nc1nc(O)c2c(n1)NCC(CCCCCCC(=O)N[C@@H](CCC(=O)O)C(=O)O)C2` (stereo partly drawn) [-(CH₂)₄- CH₂-CH₂, N-[7-(2-Amino-4-hydroxy-5,6,7,8-tetrahydropyrido[2,3-d]pyrimidin-6-yl)heptanoyl]-L-glutamic acid], in the series with CCRF-CEM, the IC50 came out at 0.034 µg/mL (≈ 0.0803 µM).

What is called % Inhibition is how much of the control response was suppressed. Lower therefore signals little suppression. In the case of `Nc1nc(O)c2c(n1)NCC(CCCC(=O)N[C@@H](CCC(=O)O)C(=O)O)C2` (stereo partly drawn) [N-[4-(2-amino-4-hydroxy-5,6,7,8-tetrahydropyrido[2,3-d]pyrimidin-6-yl)butyryl]-L-glutamic acid], the “% Inhibition” value in series [1] (3.12 mg/kg, eight days) is 0%; in series [1] (6.25 mg/kg, eight days), 11%; in series [1] (12.5 mg/kg, eight days) it was 62%; in series [1] (25 mg/kg, eight days), 88%; in series [1] (50 mg/kg, eight days), 98%. The Toxicity is listed as 0/10 in series [1] (3.12 mg/kg, eight days); 0/10 in series [1] (6.25 mg/kg, eight days); 0/10 in series [1] (12.5 mg/kg, eight days); 0/10 in series [1] (25 mg/kg, eight days); 1/10 in series [1] (50 mg/kg, eight days).

`Nc1nc(O)c2c(n1)NCC(CCc1csc(C(=O)N[C@@H](CCC(=O)O)C(=O)O)c1)C2` (stereo partly drawn) [N-[4-(2-{2-amino-4-hydroxy-5,6,7,8-tetrahydropyrido[2,3-d]pyrimidin-6-yl}ethyl)thien-2-ylcarbonyl]-L-glutamic acid]: in the series with CCRF-CEM, the IC50 came to 0.0756 µg/mL (≈ 0.168 µM).

Turning to `Nc1nc(O)c2c(n1)NCC(CCc1ccc(C(=O)N[C@@H](CCC(=O)O)C(=O)O)s1)C2` (stereo partly drawn) [N-[5-(2-{2-Amino-4-hydroxy-5,6,7,8-tetrahydropyrido[2,3-d]pyrimidin-6-yl}ethyl)thien-2-ylcarbonyl]-L-glutamic Acid], the “% Inhibition” value in the series with MX-1 Mammary Xenography (5 mg/kg) was 84%; in the series on MX-1 Mammary Xenography (10 mg/kg) it was 96%; in the series with MX-1 Mammary Xenography (20 mg/kg) it was “toxic”; in the series with MX-1 Mammary Xenography (40 mg/kg), “toxic”; in series [2] (20 mg/kg) it was 78%; in series [2] (40 mg/kg), 83%. Besides, the “% Inhibition” value in the series on B-16 Melanoma tumors (50 mg/kg) turned out to be 38%; in the series with B-16 Melanoma tumors (100 mg/kg), 73%; in the series on B-16 Melanoma tumors (200 mg/kg), 93%; with CX-1 Colon Xenography (5 mg/kg), 90%; in the series with CX-1 Colon Xenography (10 mg/kg) it was 94%; in the series with CX-1 Colon Xenography (20 mg/kg) it was 91%. Besides, the “% Inhibition” value in the series on CX-1 Colon Xenography (40 mg/kg) is on record as “toxic”; in series [3] (2.5 mg/kg), 71%; in series [3] (5 mg/kg), 90%; in series [3] (10 mg/kg), 94%; in series [3] (20 mg/kg) it was 100%; in series [3] (40 mg/kg), 100%. The “% Inhibition” value was 93% in series [1] (0.78 mg/kg, 10 days); 100% in series [1] (1.56 mg/kg, 10 days); 100% in series [1] (3.12 mg/kg, 10 days); “toxic” in series [1] (6.25 mg/kg, 10 days); 98% with LX-1 Lung Xenography (10 mg/kg); 100% with LX-1 Lung Xenography (20 mg/kg). Moreover, in the series with LX-1 Lung Xenography (40 mg/kg), the “% Inhibition” value was “toxic”. The Toxicity in the series with MX-1 Mammary Xenography (5 mg/kg) is recorded as 3/10; in the series on MX-1 Mammary Xenography (10 mg/kg), 5/10; in the series with MX-1 Mammary Xenography (20 mg/kg), 9/9; with MX-1 Mammary Xenography (40 mg/kg) it was 10/10; in series [2] (20 mg/kg), 0/10; in series [2] (40 mg/kg), 0/10. Moreover, the Toxicity with B-16 Melanoma tumors (50 mg/kg) was 0/9; in the series on B-16 Melanoma tumors (100 mg/kg) it was 3/10; in the series on B-16 Melanoma tumors (200 mg/kg), 4/10; in the series on CX-1 Colon Xenography (5 mg/kg) it was 3/10; in the series with CX-1 Colon Xenography (10 mg/kg), 6/10; in the series with CX-1 Colon Xenography (20 mg/kg) it was 9/10. Further, the Toxicity is on record as 10/10 in the series with CX-1 Colon Xenography (40 mg/kg); 0/10 in series [3] (2.5 mg/kg); 1/10 in series [3] (5 mg/kg); 0/10 in series [3] (10 mg/kg); 0/10 in series [3] (20 mg/kg); 0/10 in series [3] (40 mg/kg). The Toxicity in series [1] (0.78 mg/kg, 10 days) was 0/10; in series [1] (1.56 mg/kg, 10 days), 0/10; in series [1] (3.12 mg/kg, 10 days), 6/10; in series [1] (6.25 mg/kg, 10 days) it was 10/10; in the series on LX-1 Lung Xenography (10 mg/kg), 0/8; with LX-1 Lung Xenography (20 mg/kg) it was 4/8. Further, in the series with LX-1 Lung Xenography (40 mg/kg), the Toxicity is listed as 8/8. The IC50 in the series with CCRF-CEM is 0.0015 µg/mL (≈ 0.00334 µM).

Consider `Nc1nc(O)c2c(n1)NCC(CCc1ccc(C(=O)N[C@@H](CCC(=O)O)C(=O)O)o1)C2` (stereo partly drawn) [N-[5-(2-{2-amino-4-hydroxy-5,6,7,8-tetrahydropyrido[2,3-d]pyrimidin-6-yl}ethyl)fur-2-ylcarbonyl]-L-glutamic acid], for which the IC50 in the series with CCRF-CEM turned out to be 0.01 µg/mL (≈ 0.0231 µM). Moreover, the “% Inhibition” value in series [1] (0.625 mg/kg, days 1, 4, 7) is 1%; in series [1] (1.25 mg/kg, days 1, 4, 7), 29%; in series [1] (2.5 mg/kg, days 1, 4, 7), 98%; in series [1] (5 mg/kg, days 1, 4, 7), 97%; in series [1] (10 mg/kg, days 1, 4, 7), 100%; in series [1] (20 mg/kg, days 1, 4, 7), 100%. Besides, the “% Inhibition” value was 59% in series [1] (25 mg/kg, eight days); 69% in series [1] (50 mg/kg, eight days); 89% in series [1] (100 mg/kg, eight days). Further, the Toxicity is given as 0/10 in series [1] (0.625 mg/kg, days 1, 4, 7); 0/10 in series [1] (1.25 mg/kg, days 1, 4, 7); 0/10 in series [1] (2.5 mg/kg, days 1, 4, 7); 0/10 in series [1] (5 mg/kg, days 1, 4, 7); 0/10 in series [1] (10 mg/kg, days 1, 4, 7); 0/10 in series [1] (20 mg/kg, days 1, 4, 7). Also, the Toxicity in series [1] (25 mg/kg, eight days) is 0/10; in series [1] (50 mg/kg, eight days), 0/10; in series [1] (100 mg/kg, eight days) it was 0/10.

Turning to `Nc1nc(O)c2c(n1)NCC(CCC1CCC(C(=O)N[C@@H](CCC(=O)O)C(=O)O)CC1)C2` (stereo partly drawn) [N-{4-[2-(2-amino-4-hydroxy-5,6,7,8-tetrahydropyrido[2,3-d]pyrimidin-6-yl)ethyl]cyclohexylcarbonyl}-L-glutamic acid], the IC50 in the series with CCRF-CEM worked out at 0.007 µg/mL (≈ 0.0156 µM). The “% Inhibition” value in series [1] (12.5 mg/kg, eight days) is 18%; in series [1] (25 mg/kg, eight days) it was 4%; in series [1] (50 mg/kg, eight days), 5%; in series [1] (100 mg/kg, eight days), 22%. The Toxicity is 0/10 in series [1] (12.5 mg/kg, eight days); 0/10 in series [1] (25 mg/kg, eight days); 0/10 in series [1] (50 mg/kg, eight days); 0/9 in series [1] (100 mg/kg, eight days).
